Here are results for 32 molecules from ChEMBL document CHEMBL1132650, “4,5-Dihydro-1,2,4-triazolo[1,5-a]quinoxalin-4-ones: excitatory amino acid antagonists with combined glycine/NMDA and AMPA receptor affinity” (J Med Chem, 1999).

Test [1] addresses T1, Glutamate receptor ionotropic, AMPA (Rattus norvegicus, UniProt P19490+P19491+P19492+P19493). As to the kind of experiment: Binding affinity towards ionotropic glutamate receptor AMPA in rat cortical membranes using [3H]AMPA radioligand. It counts as cell membranes.
The target of test [2] is T2, Glutamate receptor ionotropic, NMDA 1 (Rattus norvegicus, UniProt P35439). As to the kind of experiment: Binding affinity towards N-methyl-D-aspartate glutamate receptor 1 in rat cortical membranes using [3H]glycine as radioligand. It counts as cell membranes.
Test [3] deals with T2, Glutamate receptor ionotropic, NMDA 1. As to the kind of experiment: Functional antagonism at the N-methyl-D-aspartate glutamate receptor 1 was demonstarted by the ability to inhibit the binding of the channel-blocking agent [3H](+)-MK-801.
Test [4] deals with T1, Glutamate receptor ionotropic, AMPA. As to the kind of experiment: The compound was tested for its binding affinity towards AMPA receptor in rat cortical membranes using [3H]AMPA radioligand. It counts as cell membranes.
The target of test [5] is T2, Glutamate receptor ionotropic, NMDA 1. As to the kind of experiment: The compound was tested for its binding affinity towards Glycine/NMDA receptor in rat cortical membranes using [3H]glycine as radioligand. Type of test: cell membranes.
For test [6] the target is unchanged. As to the kind of experiment: Functional antagonism at the NMDA receptor-ion channel complex was demonstarted by the ability to inhibit the binding of the channel-blocking agent [3H](+)-MK-801.

Each structure is given as a SMILES string. A value given as a limit tells only on which side of the number the result lay.

For orientation: Ki means a measure of affinity in units of concentration, obtained from inhibition or displacement. For `N#CCc1nc2c(O)nc3cc(Cl)ccc3n2n1`, the Ki in test [1] worked out at 2 µM; in test [2] it was 9.7 µM.

As usually defined, the EC50 is the concentration giving half of the maximal effect. For `O=C(O)c1nc2c(=O)[nH]c3ccccc3n2n1`, the Ki came to 13.6 µM in test [1] and 1.1 µM in test [2]. Also, the EC50 in test [3] was determined as 4.9 µM.

Consider `CCOC(=O)c1nc2c(=O)[nH]c3cc(N)ccc3n2n1`, for which the Ki in test [1] and in test [2] was > 100 µM in each case. The EC50 in test [3] was > 100 µM.

As for `O=C(O)CNC(=O)c1nc2c(O)nc3cc(Cl)ccc3n2n1`, the results for the Ki in test [1] and in test [2] were 3.2 µM and 8.8 µM, respectively.

With `CCOC(=O)Cc1nc2c(=O)[nH]c3cc(Cl)ccc3n2n1`, the Ki in test [1] turned out to be 2.1 µM; in test [2] it was 6.5 µM.

In the case of `O=C(O)c1nc2c(O)nc3cc(Cl)c([N+](=O)[O-])cc3n2n1`, the Ki worked out at 1.2 µM in test [1] and 2.2 µM in test [2].

In the case of `O=C(O)c1nc2c(O)nc3cc(C(F)(F)F)ccc3n2n1`, the inhibitory constant (Ki) in test [1] was found to be 0.9 µM; in test [2] it was 0.57 µM. Also, in test [3], the EC50 came to 3.18 µM.

Regarding `O=C(O)c1cc(O)c2c(Cl)cc(Cl)cc2n1`, in test [3], the EC50 is 0.33 µM.

Take `O=C(O)c1nc2c(=O)[nH]c3cc(Br)ccc3n2n1`: the Ki in test [1] was 4.4 µM; in test [2], 0.39 µM. The EC50 in test [3] worked out at 3.7 µM.

On to `O=C(O)c1nc2c(=O)[nH]c3cc(Cl)cc(Cl)c3n2n1`, for which the Ki came out at 1.53 µM in test [1] and 0.14 µM in test [2]. Moreover, it took 1.35 µM to reach a half-maximal effect in test [3] (EC50).

With `O=C(O)c1nc2c(O)nc3ccc([N+](=O)[O-])cc3n2n1`, the Ki in test [1] worked out at 10.7 µM; in test [2], 79.4 µM. Moreover, the EC50 in test [3] is > 100 µM.

Consider `OCc1nc2c(O)nc3cc(Cl)ccc3n2n1`, for which the Ki in test [1] amounted to 4.4 µM; in test [2] it was 7.5 µM.

In the case of `NNC(=O)c1nc2c(=O)[nH]c3cc(Cl)ccc3n2n1`, the inhibition constant Ki turned out to be 5 µM in test [4] and 9.6 µM in test [5].

Consider `O=C(Nc1nn[nH]n1)c1nc2c(O)nc3cc(Cl)ccc3n2n1`, for which the inhibition constant Ki in test [1] came out at 2.4 µM; in test [2], 5.1 µM.

For the molecule `CCOC(=O)c1nc2c(=O)[nH]c3ccc(Cl)cc3n2n1`, the Ki is 72.1 µM in test [1] and 88.2 µM in test [2].

On to `O=C(O)c1nc2c(=O)[nH]c3ccc(Cl)cc3n2n1`, for which the figures for the Ki in test [1] and in test [2] were 18.4 µM and 3.5 µM, respectively. Further, the EC50 in test [3] was 32.5 µM.

Consider `CCn1c(=O)c2nc(C(=O)O)nn2c2ccc(Cl)cc21`, for which the Ki in test [1] is > 100 µM; in test [2] it was 88 µM. Moreover, the EC50 in test [3] was > 100 µM.

As for `O=C(O)c1nc2c(=O)[nH]c3cc([N+](=O)[O-])ccc3n2n1`, the Ki came to 0.6 µM in test [1] and 0.71 µM in test [2]. Besides, in test [3], the EC50 amounted to 7.8 µM.

For the molecule `O=C(NO)c1nc2c(O)nc3cc(Cl)ccc3n2n1`, the Ki in test [4] amounted to 3 µM; in test [5], 1.1 µM.

In the case of `O=C(O)c1nc2c(=O)[nH]c3cc(Cl)c(Cl)cc3n2n1`, the Ki in test [1] is 1.3 µM; in test [5] it was 0.074 µM. The same molecule came in with an EC50 in test [6] of 0.3 µM.

Take `CCOC(=O)c1nc2c(O)nc3cc(Cl)ccc3n2n1`: the Ki was found to be 2.6 µM in test [1] and 3 µM in test [2]. The molecule further displayed an EC50 in test [3] of 22.1 µM.

Consider `O=C(O)c1nc2c(O)nc3c([N+](=O)[O-])cc(Cl)cc3n2n1`, for which the results for the Ki in test [1] and in test [2] were 4 µM and 4.5 µM, respectively. In addition, the concentration for a half-maximal effect (EC50) in test [3] is > 100 µM.

With `CCOC(=O)c1nc2c(=O)[nH]c3cc(Cl)cc(Cl)c3n2n1`, the Ki in test [1] worked out at 4.9 µM; in test [2], 4.8 µM.

On to `NC(=O)c1nc2c(=O)[nH]c3cc(Cl)ccc3n2n1`, for which the Ki in test [1] was determined as 11.7 µM; in test [2] it was 7.2 µM.

For `CCOC(=O)c1nc2c(=O)[nH]c3cc(C(F)(F)F)ccc3n2n1`, the Ki in test [1] came out at 3.6 µM; in test [2] it was 1.8 µM.

For the molecule `O=C(NCCO)c1nc2c(O)nc3cc(Cl)ccc3n2n1`, the Ki in test [1] was determined as 7.7 µM; in test [2] it was 27.7 µM.

Take `CCOC(=O)c1nc2c(O)nc3cc(Br)ccc3n2n1`: the Ki in test [1] is 3.3 µM; in test [2], 2.6 µM.

`CCOC(=O)c1nc2c(O)nc3ccccc3n2n1`: the Ki stood at 28.5 µM in test [1] and 16.7 µM in test [2]. Further, the concentration for a half-maximal effect (EC50) in test [3] is 69 µM.

For the molecule `O=C(O)c1nc2c(O)nc3cc(Cl)ccc3n2n1`, the Ki came out at 0.78 µM in test [1] and 0.17 µM in test [2]. The response in test [3] was half-maximal at 2.9 µM (EC50).

In the case of `COC(=O)CNC(=O)c1nc2c(=O)[nH]c3cc(Cl)ccc3n2n1`, the figures for the Ki in test [1] and in test [2] were 4.1 µM and 5.4 µM, respectively.

As to `O=C(O)Cc1nc2c(O)nc3cc(Cl)ccc3n2n1`, the Ki in test [1] worked out at 3.7 µM; in test [2] it was 1.1 µM.

Take `CCOC(=O)c1nc2c(O)nc3cc(Cl)c(Cl)cc3n2n1`: the Ki in test [1] turned out to be 33.9 µM; in test [2] it was 0.71 µM. The molecule further had an EC50 in test [3] of 1.5 µM.
